Experimental data: patent US10793567B2, “Bicyclic inhibitors of histone deacetylase” (Rodin Therapeutics, Inc., priority 2017, dated 2020)
Where “and” joins values, the source holds several entries; their conditions need not be identical. Equal entries are not always repeated. Where two headings read alike, the source gives them in different places.

How the values were obtained:
HDAC2 = HDAC2 (Homo sapiens (Human), UniProt Q92769); test: HDAC2 enzymatic inhibition assay in SY5Y cell lysate (HDAC-Glo 2); type: cell-based; details: SH-SY5Y cells, five hours incubation
Sequence of HDAC2 (Q92769 whole entry): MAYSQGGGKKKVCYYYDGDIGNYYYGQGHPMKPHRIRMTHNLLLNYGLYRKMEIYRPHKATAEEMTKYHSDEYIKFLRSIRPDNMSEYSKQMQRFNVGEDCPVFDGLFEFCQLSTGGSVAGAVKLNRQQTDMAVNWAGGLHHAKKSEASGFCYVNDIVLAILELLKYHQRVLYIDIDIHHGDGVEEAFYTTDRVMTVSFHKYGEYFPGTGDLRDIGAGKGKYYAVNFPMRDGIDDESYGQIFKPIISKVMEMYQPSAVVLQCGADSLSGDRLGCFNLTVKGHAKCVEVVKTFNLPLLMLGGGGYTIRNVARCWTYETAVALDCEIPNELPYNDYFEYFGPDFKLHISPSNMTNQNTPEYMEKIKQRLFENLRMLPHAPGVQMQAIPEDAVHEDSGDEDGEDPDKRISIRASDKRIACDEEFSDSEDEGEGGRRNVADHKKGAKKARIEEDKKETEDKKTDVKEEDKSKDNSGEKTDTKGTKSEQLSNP
Experimental: SH-SY5Y cells (Sigma) were cultured in Eagle's Modified Essential Medium supplemented with 10% fetal bovine serum and pen/strep. Twenty-four hours prior to compound dosing 20 uL of cells were plated in white 384 well plates at a density of 1,500 cells/well. Compounds were serially diluted in neat DMSO and then diluted 1:100 v/v into media without FBS and mixed. Media was removed from the plated cells and the diluted compounds in serum free media (1% v/v final DMSO) were added and incubated at 37.0 for five hours. Ten uL of HDAC-Glo 2 reagent with 0.1% Triton X-100 was then added, the plate was mixed and allowed to develop at room temperature for 100 minutes. Plates were then read with a Spectramax LMax luminometer employing a 0.4 s integration time. Dose response curves were constructed with normalized data where CI-994 at 100 uM was defined as 100% inhibition and DMSO alone as 0% inhibition.

[1] = Brain and plasma exposure following IV and PO administration to mice; type: in vivo; details: for Projected free brain @ 10 mpk / Brain Cmax @ 10 mpk: 10 mg/kg PO; for half-life / clearance: mouse, plasma; for clearance: read-out: IV PK Cl (converted); for brain Cmax exposure, fold higher than comparator 1 / projected free brain concentration, fold higher than comparator 1: comparator 1 data scaled for comparison
Experimental: Compounds were dosed in mice at either 10 mg/kg or 30 mg/kg PO, and were dosed at 1 mg/kg IV. Three animals for collection at each time point for plasma via bleeding at 0.25, 0.5, 1, 4, 12 and 24 h. Terminal bleeding for plasma and sampling for brain at 0.25, 0.5, 1, 4, 12 and 24 h (also three animals per brain exposure time point group). Total of six time points for plasma and six time points for brain.
Plasma: The animal was restrained manually at the designated time points, approximately 150 μL blood/time point was collected into K2EDTA tube via retro orbital puncture or cardiac puncture under anesthesia with Isoflurane. The blood sample was centrifuged (2000 g, 4° C., 5 min) to generate plasma within 30 min after bleeding.
Brain: At the designated time points, a mid-line incision was made in the animals scalp and the skin was retracted. Using small bone cutters and rongeurs, removed the skull overlying the brain. Removed the brain using a spatula and rinse with cold saline. Placed the brain in screw-top tubes, and then stored the tubes under −70° C. until analysis.

[2] = tested on: human myeloid progenitors (CFU-GM); test: Myeloid CFU assay (colony forming cell assay, bone marrow); type: cell-based; details: 14 days in culture
Experimental: (§1) Compounds were tested to evaluate the potential effects on human erythroid and myeloid progenitors using colony forming cell assays. Clonogenic progenitors of human erythroid (CFU-E, BFU-E), granulocyte-monocyte (CFU-GM) and multipotential (CFU-GEMM) lineages were assessed in a semi-solid methylcellulose-based media formulation containing rhlL-3 (10 ng/mL), rhGM-SCF (10 ng/mL), rhSCF (50 ng/mL) and Epo (3 U/mL).
(§2) Normal human bone marrow light density cells derived from normal bone marrow (NorCal Biologics, California), were stored in the gaseous phase of liquid nitrogen (−152° C.) until required for the assay. On the day of the experiment, the cells were thawed rapidly, the contents of each vial was diluted in 10 mL of Iscove's modified Dulbecco's medium containing 10% fetal bovine serum (IMDM+10% FBS) and washed by centrifugation (approximately 1200 r.p.m. for 10 minutes, room temperature). The supernatant was discarded and the cell pellets resuspended in a known volume of IMDM+10% FBS. A cell count (3% glacial acetic acid) and viability assessment (trypan blue exclusion test) was performed for the bone marrow sample.
(§3) On the day of the experiment, the compounds were dissolved in DMSO to a stock concentration of 10 mM. Serial dilutions were prepared from the stock concentration to achieve concentrations of 2 and 0.4 mM. When added to the methylcellulose-based media at 1:1000 (v/v), the final test concentrations of 10, 2 and 0.4 μM were achieved. Additionally, 5-FU was evaluated at 1.0, 0.1 and 0.01 μg/mL.
(§4) Clonogenic progenitors of the human erythroid (CFU-E and BFU-E) and myeloid (CFU-GM) lineages were set up in the methylcellulose-based media formulations described above. All compounds were added to the medium to give the final desired concentrations (10, 2 and 0.4 μM). 5-Fluorouracil (Sigma Aldrich) was used as a positive control for progenitor proliferation (inhibition of colony growth) and was introduced to the human bone marrow cultures at 1.0, 0.1, and 0.01 μg/mL. Solvent control cultures (containing no compound but 0.1% DMSO) as well as standard controls (containing no compound and no DMSO) were also initiated.
(§5) Human myeloid and erythroid progenitor assays were initiated at 2.0×10^4 cells per culture. Following 14 days in culture, myeloid and erythroid colonies were assessed microscopically and scored by trained personnel. The colonies were divided into the following categories based on size and morphology: CFU-E, BFU-E, CFU-GM and CFU-GEMM.
(§6) The mean±one standard deviation of three replicate cultures was calculated for progenitors of each category (CFU-E, BFU-E, etc.). Two-tailed t-tests were performed to assess if there was a difference in the number of colonies generated between solvent control and treated cultures. Due to the potential subjectivity of colony enumeration, a p value of less than 0.01 is deemed significant. To calculate the concentration of 50% inhibition of colony growth (IC50) for each compound, a dose response curve was generated plotting the log of the compound concentration versus the percentage of control colony growth using XLfit software (IDBS). The concentration of 50% inhibition of colony growth (IC50) was calculated based on the sigmoid curve fit using Dose-Response, One-Site Model formula: y=A+[(B−A)/(1+((C/x)^D))], where A=the initial value (baseline response), B=maximum response, C=center (drug concentration that provokes a response halfway between A and B) and D=slope of the curve at midpoint. Further, plots and additional dose response curves were generated using GraphPad Prism 7.0.
(§7) Erythroid (CFU-E and BFU-E), myeloid (CFU-GM) and multi-potential (CFU-GEMM) colony enumeration was performed by trained personnel. The distribution of colony types as well as general colony and cellular morphology was analyzed. For statistical analysis colony numbers in compound treated cultures were compared to the solvent control cultures. […]

[3] = tested on: human erythroid progenitors (CFU-E, BFU-E); test: Erythroid CFU assay (colony forming cell assay, bone marrow); type: cell-based; details: 14 days in culture
Experimental: as §1, §2, §3, §4, §5, §6, §7

[4] = iv, 1 mg/kg, mice, 1 mg/kg IV, read-out: IV PK T1/2 (converted)
[5] = po, 10 mg/kg, mice, PO, read-out: PO T1/2 (converted)

Row | Structure (SMILES) | IC50 (HDAC2) [µM] | Projected free brain @ 10 mpk ([1]; mice) | Brain Cmax @ 10 mpk ([1]; mice) | half-life [1, 4] [h] | half-life [1, 5] [h] | clearance ([1]; mice, 1 mg/kg IV) [L/h/kg] | Myeloid % control @ 10 uM dose [2] [%] | Erythroid % control @ 10 uM dose [3] [%] | brain Cmax exposure, fold higher than comparator 1 [1] [fold] | projected free brain concentration, fold higher than comparator 1 [1] [fold] | PO T1/2 ([1]; mice, PO) [h]
1 | CCc1ncc2c(n1)CN(C(=O)Nc1nc(-c3cccs3)ccc1N)C2 [Compound 3] | 0.1 to 1 | 0.387 µM | 526 ng/g | 0.737 | 1.48 | 1.5 | 89.4 | 46.6 | – | – | –
2 | CCc1cc2c(cn1)CN(C(=O)Nc1nc(-c3cccnc3)ccc1N)C2 [Compound 8] | 0.1 to 1 | 0.222 µM | 279 ng/g | 0.628 | 1.27 | 2.11 | 102 | 98 | – | – | –
3 | Nc1ccc(-c2ccc(F)cc2)nc1NC(=O)N1Cc2cn(C3COC3)nc2C1 [Compound 1] | 0.1 to 1 | 0.324 µM | 636 ng/g | 3.11 | 2.05 | 0.421 | 54 | 37 | – | – | –
4 | Cc1ncc2c(n1)CN(C(=O)Nc1nc(-c3ccc(F)cc3)ccc1N)C2 [Compound 14] | 0.1 to 1 | 0.403 µM | 633 ng/g | 2.09 | 3.22 | 0.859 | 112 | 53 | 4 | 4 | –
5 | Cc1ncc(-c2ccc(N)c(NC(=O)N3Cc4cn(CC(F)F)nc4C3)n2)s1 [Compound 5] | 0.1 to 1 | 0.302 µM | 277 ng/g | 2.81 | 2.33 | 0.354 | – | – | – | – | –
6 | COCCn1cc2c(n1)CN(C(=O)Nc1nc(-c3ccc(F)cc3F)ccc1N)C2 [Compound 9] | 0.1 to 1 | 0.881 µM and 0.795 µM | 1533 ng/g and 1383 ng/g | 0.644 | 1.39 | 1.67 | 62.8 | 40.4 | – | – | 1.01
7 | Cc1ncc2c(n1)CN(C(=O)Nc1nc(-c3ccc(F)s3)ccc1N)C2 [Compound 2] | 1 to 1.5 | 0.438 µM | 760 ng/g | 0.643 | 1.25 | 4.06 | 87 | 40 | – | – | –
8 | Cc1cc2c(cn1)CN(C(=O)Nc1nc(-c3cccnc3)ccc1N)C2 [Compound 12] | 0.1 to 1 | 0.386 µM | 237 ng/g | 0.513 | 3.67 | 1.77 | 104 | 93 | – | – | –
9 | CCc1ncc2c(n1)CN(C(=O)Nc1nc(-c3ccc(F)cc3)ccc1N)C2 [Compound 17] | 1 to 1.5 | 0.568 µM | 1241 ng/g | 2.07 | 2.54 | 1.49 | 79.1 | 59.6 | ~7 | 5 | –
